Data set [1] can be described thus: In vitro intrinsic clearance in human microsomes. The format is in vitro ADME. The settings on record: pH 7.4; human microsomes 0.5 mg/ml, 1 μM compound, 37° C., up to 1 hour; read-out: human MS Clint. Here is the method:
(§1) Metabolic stability of the compounds of the invention has been assessed by measurement of the in vitro intrinsic clearance in murine and human microsomes.
(§2) 10 mM stock solutions of markers and test compounds were prepared in DMSO. These were diluted 100-fold in 91:9 MeCN:DMSO to obtain a 100 μM assay stock. 10 mM NADPH was made up in 0.1M phosphate buffer (pH7.4). Microsomes were thawed in a waterbath at 37° C., and diluted to give a final assay concentration of 0.5 mg/ml.
(§3) 100 μM assay stocks were added to give a final concentration of 1 μM to incubation tubes containing buffer and NADPH (final assay concentration is 1 mM). Incubation tubes and microsomes were pre-warmed at 37° C. for 3 minutes. The microsomes were then added to the incubation tubes which were kept at 37° C. and shaken using the orbital shaker for the duration of the assay. Samples were taken at 6 pre-determined time points up to 1 hour and transferred to the prepared quench tubes containing an appropriate solvent with internal standard.
(§4) Quenched samples are mixed thoroughly and protein precipitated at −20° C. for a minimum of 12 hours. Samples were then centrifuged at 4° C. Supernatants were transferred to a fresh 96 well plate, compatible with the auto-sampler. The plate was sealed with a pre-slit silicone mat and analyzed by LC-MS/MS.

For data set [2], the system named is SJSA-1 osteosarcoma cell line. The data set is described as follows: Cell viability MTT assay. The format is cell-based. Conditions: Homo sapiens, 72 h incubation, average of 2-5 experiments. Here is the method:
The effect of the invented p53-Mdm2 inhibitors on cell viability has been assessed using MTT assay. It is a colorimetric assay that measures conversion of tetrazolium ring of the soluble yellow dye (MTT) into insoluble purple formazan. This process is catalyzed solely in mitochondrial dehydrogenases of living cells.
Cells were seeded on 96-well plates and then treated with successive dilutions of tested compounds. After 72 h incubation, MTT was added to the final concentration 0.5 mg/ml. The cells were further incubated for the next 4 h. Then the solution was drained and the remaining formazan crystals were dissolved in 100 μl DMSO. […] All the MTT experiments were independently repeated 2-5 times. Dose-dependent binding curves and IC50 values were calculated using GraphPad Prism 5. The presented IC50 values represent the average value from all the performed experiments (Table 3).

The subject of a further data set is SJSA-1 xenograft. Briefly: In vivo efficacy in the SJSA-1 xenograft model in mice. The settings on record: for inhibition in vivo at 12.5 mg/kg: Mus musculus, po, 12.5 mg/kg p.o., q1d, SJSA-1 xenograft in Crl:CD-1-Foxn1nu mice, mean; for effect of treatment on tumors (in words): 14 doses of 12.5 mg/kg p.o., SJSA-1 xenograft; for regrowth of lesions during follow-up: after 14 doses of 12.5 mg/kg p.o., follow-up to day 101. Here is the method:
The experiment was conducted on female mice from the Crl:CD-1-Foxn1nu strain. Mice were inoculated subcutaneously in the right flank with cancer cell line SJSA-1 in the amount of 3×10^6 cells suspended in 100 μl HBSS: Matrigel matrix in a 3:1 ratio per mouse. On the 17th day after inoculation mice were divided into groups, so that in each group the mean tumor volume was similar and averaged around 200 mm^3. Experiment groups were selected, each consisting of 8 mice: Control NaCl 0.9% and compounds. Compounds 1-11 were dissolved in 56.60% PEG 400, 9.43% Cremophor RH40, 9.43% ETOH, 18.87% Labrafil M1944CS, 5.67% DMSO. For Compound 107 from WO2015/189799, group of 7 mice was used, and it was dissolved in 15% PEG400, 10% Cremophor EL, 75% H2O.
[…] During the course of experiment mice were weighed before each administration, —twice/thrice a week. Animal welfare was monitored daily. No significant difference in body weight or welfare was observed between experiment groups during and at the end of study.
Change in tumor volume was monitored twice/thrice a week starting from the first day of administration. Tumor volume was calculated based on its length and width measured with an electronic calipers: V[mm^3]=d^2×D/2
The tumor volume in the groups was measured up to 101 days after inoculation (72 days after last administration). Results of the experiment were expressed as mean values of tumor growth inhibition (TGI) ±SEM (Table 4). Tumor growth inhibition was calculated using the following formula TGI [%]=[100−[…]]
where C— mean tumor size in control group, T—mean tumor size in treated group. All calculations and graphs were performed using GraphPad Prism 5 software.

Data set [3] is described as follows: In vitro intrinsic clearance in murine microsomes. The format is in vitro ADME. The settings on record: mouse, pH 7.4; murine microsomes 0.5 mg/ml, 1 μM compound, 37° C., up to 1 hour; read-out: murine MS Clint. Here is the method:
as §1, §2, §3, §4

For a further data set, the target named is p53-Mdm2 interaction (Homo sapiens (Human), UniProt Q00987). The data set is described as follows: Fluorescence polarization (FP) binding assay, inhibition of p53-Mdm2 interaction. Conditions: 75 nM Mdm2 (amino acids 1-111), 10 nM FAM-labelled p53 peptide; IC50 transformed to Ki using Kenakin equation. The method, then:
The inhibition of p53-Mdm2 interaction was measured using a fluorescence polarization (FP) binding assay. FP measures the rotational movement of molecules in a homogenous suspension. For this assay, N-terminal domain of Mdm2 protein (amino acids 1-111) is combined with a fluorescein-labeled (FAM) peptide derived from p53 trans-activation domain (Sequence: 5-FAM-TSFAEYWNLLSP). Upon excitation of the fluorescent ligand with linearly polarized light the peptide emits perpendicularly polarized light. If the peptide is bound by Mdm2, rotation will slow down and the perpendicular component will proportionally decrease. In opposition disruption of the peptide-Mdm2 complex due to binding of an inhibitor to the p53 binding site of Mdm2 results in releasing of peptide and decreasing of emitted light polarization.
Fluorescence polarization experiments were read on Biotek Cytation 5 reader with the 470 nm excitation and 520 nm emission filters for fluorescein. The fluorescence polarization was measured in black 96-well plates (Corning, CLS3991) in room temperature. Purity of Mdm2 was controlled at >95%. Reaction buffer was optimized by adding 5 mM DTT and 0.1% zwitterionic detergent CHAPS to reduce effect of nonspecific interactions.
The test was performed by combining successive dilution of compounds diluted in dimethyl sulfoxide (DMSO, 5% final concentration) with 75 nM Mdm2 in reaction buffer (PBS, 0.1% CHAPS, 5 mM DTT (dithiothreitol)). After 15 minutes of incubation in room temperature 10 nM FAM-labelled peptide was added. Final reading was performed after 90 minutes of incubation. Dose-dependent binding curves and IC50 values were calculated using GraphPad Prism5 and next transformed to Ki values using Kenakin equation (Table 2).

[4] abbreviates: after 7 doses, read-out: TGI P.O. 12.5 mg/kg (7 doses) [%].
[5] abbreviates: after 12 doses, read-out: TGI P.O. 12.5 mg/kg (12 doses) [%].

Read-outs that look alike come from different tables or passages of the source.

Data on eight molecules can be found in patent US12415811B2, “1,2,3',5'-tetrahydro-2'h-spiro[indole-3,1'-pyrrolo[3,4-C]pyrrole]-2,3'-dione compounds as therapeutic agents activating TP53” (ADAMED PHARMA, S.A., priority 2018, dated 2025).

Chain of p53-Mdm2 interaction (Q00987 1-111): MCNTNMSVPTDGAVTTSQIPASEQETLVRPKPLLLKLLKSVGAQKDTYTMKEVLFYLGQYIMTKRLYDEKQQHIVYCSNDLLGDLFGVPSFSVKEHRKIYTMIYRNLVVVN

With `COc1nc(OC)c(-n2cc3c(c2C(C)C)[C@@]2(C(=O)Nc4cc(Cl)ccc42)N(c2cc(Cl)ccc2F)C3=O)c(OC)n1` [Compound 5, (3S)-6-chloro-2′-(5-chloro-2-fluorophenyl)-6′-(propan-2-yl)-5′-(trimethoxypyrimidin-5-yl)-1,2,3′,5′-tetrahydro-2′H-spiro[indole-3,1′-pyrrolo[3,4-c]pyrrole]-2,3′-dione], the microsomal CLint at 1 μM in data set [1] and in data set [3] was below 3 µL/min/mg each time. The IC50 in data set [2] turned out to be 0.18 µM. Further, the inhibition in vivo at 12.5 mg/kg in the data set with SJSA-1 xenograft (setting [4]) turned out to be 85.8%; in the data set on SJSA-1 xenograft (setting [5]), 96%. Affinity on p53-Mdm2 interaction was put at a Ki of 2.2 nM.

Take `COc1ncc(-n2cc3c(c2C(C)C)[C@@]2(C(=O)Nc4cc(Cl)ccc42)N(c2cccc(Cl)c2)C3=O)c(OC)n1` [Compound 1, (3S)-6-chloro-2′-(3-chlorophenyl)-5′-(2,4-dimethoxypyrimidin-5-yl)-6′-(propan-2-yl)-1,2,3′,5′-tetrahydro-2′H-spiro[indole-3,1′-pyrrolo[3,4-c]pyrrole]-2,3′-dione]: the microsomal CLint at 1 μM in data set [1] is below 3 µL/min/mg; in data set [3] it was 8.8 µL/min/mg. In data set [2], this molecule yielded a concentration for half-maximal inhibition (IC50) of 0.18 µM. Further, the inhibition in vivo at 12.5 mg/kg was found to be 95% in the data set on SJSA-1 xenograft (setting [4]) and 99.5% with SJSA-1 xenograft (setting [5]). The molecule also yielded a Ki at p53-Mdm2 interaction of 1.8 nM.

In the case of `COc1cc(OC)c(-n2cc3c(c2C(C)C)[C@@]2(C(=O)Nc4cc(Cl)ccc42)N(c2ccc(F)c(F)c2)C3=O)cn1` [Compound 8, (3S)-6-chloro-2′-(3,4-difluorophenyl)-5′-(4,6-dimethoxypyridin-3-yl)-6′-(propan-2-yl)-1,2,3′,5′-tetrahydro-2′H-spiro[indole-3,1′-pyrrolo[3,4-c]pyrrole]-2,3′-dione], the results for the microsomal CLint at 1 μM in data set [1] and in data set [3] were below 3 µL/min/mg and 12.8 µL/min/mg, respectively. In data set [2], this molecule showed an IC50 of 0.15 µM. The “effect of treatment on tumors (in words)” value with SJSA-1 xenograft is “complete eradication of tumors”. For the same molecule, the values for the inhibition in vivo at 12.5 mg/kg with SJSA-1 xenograft (setting [4]) and with SJSA-1 xenograft (setting [5]) were 96.4% and 99.7%, respectively. Also, the “regrowth of lesions during follow-up” value with SJSA-1 xenograft was “none of the lesions exhibited regrowth”. The Ki at p53-Mdm2 interaction stood at 1.9 nM.

As for `COc1ncc(-n2cc3c(c2C(C)C)[C@@]2(C(=O)Nc4cc(Cl)ccc42)N(c2cc(Cl)ccc2F)C3=O)c(OC)n1` [Compound 2, (3S)-6-chloro-2′-(5-chloro-2-fluorophenyl)-5′-(2,4-dimethoxypyrimidin-5-yl)-6′-(propan-2-yl)-1,2,3′,5′-tetrahydro-2′H-spiro[indole-3,1′-pyrrolo[3,4-c]pyrrole]-2,3′-dione], the results for the microsomal CLint at 1 μM in data set [1] and in data set [3] were below 3 µL/min/mg and below 4 µL/min/mg, respectively. This molecule had a half-maximal inhibitory concentration (IC50) in data set [2] of 0.16 µM. In addition, the inhibition in vivo at 12.5 mg/kg in the data set on SJSA-1 xenograft (setting [4]) came out at 94.4%; in the data set on SJSA-1 xenograft (setting [5]) it was 98.9%. The molecule also had an inhibition constant (Ki) on p53-Mdm2 interaction of 1.7 nM.

Consider `COc1ncc(-n2cc3c(c2C(C)C)[C@@]2(C(=O)Nc4cc(Cl)ccc42)N(c2ccc(F)c(Cl)c2)C3=O)c(OC)n1` [Compound 4, (3S)-6-chloro-2′-(3-chloro-4-fluorophenyl)-5′-(2,4-dimethoxypyrimidin-5-yl)-6′-(propan-2-yl)-1,2,3′,5′-tetrahydro-2′H-spiro[indole-3,1′-pyrrolo[3,4-c]pyrrole]-2,3′-dione], for which the microsomal CLint at 1 μM in data set [1] and in data set [3] was below 3 µL/min/mg throughout. This molecule displayed an IC50 in data set [2] of 0.32 µM. Moreover, the inhibition in vivo at 12.5 mg/kg was 94.9% in the data set with SJSA-1 xenograft (setting [4]) and 99.5% in the data set on SJSA-1 xenograft (setting [5]). Besides, the Ki on p53-Mdm2 interaction came to 1.7 nM.

With `COc1ncc(-n2cc3c(c2C(C)C)[C@@]2(C(=O)Nc4cc(Cl)ccc42)N(c2ccc(F)c(F)c2)C3=O)c(OC)n1` [Compound 7, (3S)-6-chloro-2′-(3,4-difluorophenyl)-5′-(2,4-dimethoxypyrimidin-5-yl)-6′-(propan-2-yl)-1,2,3′,5′-tetrahydro-2′H-spiro[indole-3,1′-pyrrolo[3,4-c]pyrrole]-2,3′-dione], the microsomal CLint at 1 μM in data set [1] was below 3 µL/min/mg; in data set [3], 6.6 µL/min/mg. The molecule also displayed an IC50 in data set [2] of 0.22 µM. In the data set with SJSA-1 xenograft, the “effect of treatment on tumors (in words)” value is given as “complete eradication of tumors”. The inhibition in vivo at 12.5 mg/kg in the data set with SJSA-1 xenograft (setting [4]) came out at 95%; with SJSA-1 xenograft (setting [5]) it was 100%. Moreover, the “regrowth of lesions during follow-up” value in the data set on SJSA-1 xenograft is recorded as “none of the lesions exhibited regrowth”. This molecule returned an inhibition constant (Ki) at p53-Mdm2 interaction of 1.9 nM.

Turning to `COc1cc(OC)c(-n2cc3c(c2C(C)C)[C@@]2(C(=O)Nc4cc(Cl)ccc42)N(c2cc(Cl)ccc2F)C3=O)cn1` [Compound 9, (3S)-6-chloro-2′-(5-chloro-2-fluorophenyl)-5′-(4,6-dimethoxypyridin-3-yl)-6′-(propan-2-yl)-1,2,3′,5′-tetrahydro-2′H-spiro[indole-3,1′-pyrrolo[3,4-c]pyrrole]-2,3′-dione], in data set [2], the IC50 is 0.12 µM. In addition, the inhibition in vivo at 12.5 mg/kg in the data set on SJSA-1 xenograft (setting [4]) stood at 89.5%; with SJSA-1 xenograft (setting [5]), 97.7%. Moreover, the Ki on p53-Mdm2 interaction stood at 2 nM.

As to `CCC(C)c1c2c(cn1-c1cnc(OC)nc1OC)C(=O)N(c1cc(Cl)ccc1F)[C@]21C(=O)Nc2cc(Cl)ccc21` (some centres unmarked) [Compound 11, (3)-6′-(butan-2-yl)-6-chloro-2′-(5-chloro-2-fluorophenyl)-5′-(2,4-dimethoxypyrimidin-5-yl)-1,2,3′,5′-tetrahydro-2′H-spiro[indole-3,1′-pyrrolo[3,4-c]pyrrole]-2,3′-dione], in data set [2], the half-inhibitory concentration (IC50) was found to be 0.05 µM. Besides, in the data set on SJSA-1 xenograft, the “effect of treatment on tumors (in words)” value is on record as “complete eradication of tumors” and the “regrowth of lesions during follow-up” value is recorded as “none of the lesions exhibited regrowth”. Moreover, the inhibition in vivo at 12.5 mg/kg in the data set on SJSA-1 xenograft (setting [4]) was determined as 93.7%. In addition, in the data set with SJSA-1 xenograft (setting [5]), the inhibition in vivo at 12.5 mg/kg amounted to 99.7%. The molecule further registered a Ki on p53-Mdm2 interaction of 2.5 nM.
